Laboratory results from PubChem BioAssay AID2103 (Johns Hopkins Ion Channel Center, 2009).
Calls of active or inactive are those of the source.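 Rule for the calls: active = hERG current rise at or above blocker-only control mean plus 3 SD, readout 0 or more; inactive = the rest.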

Each molecule was assayed against Voltage-gated inwardly rectifying potassium channel KCNH2 (Homo sapiens) (UniProt Q12809) (assay: relief of dofetilide hERG inhibition – cell-based, Ionworks automated patch clamp, CHO-hERG, secondary (AID 2103)). Conditions: dofetilide IC70, at 10 µM, stronger effect = higher value.
Voltage-gated inwardly rectifying potassium channel KCNH2 (Homo sapiens), sequence (Q12809 whole entry, looked up): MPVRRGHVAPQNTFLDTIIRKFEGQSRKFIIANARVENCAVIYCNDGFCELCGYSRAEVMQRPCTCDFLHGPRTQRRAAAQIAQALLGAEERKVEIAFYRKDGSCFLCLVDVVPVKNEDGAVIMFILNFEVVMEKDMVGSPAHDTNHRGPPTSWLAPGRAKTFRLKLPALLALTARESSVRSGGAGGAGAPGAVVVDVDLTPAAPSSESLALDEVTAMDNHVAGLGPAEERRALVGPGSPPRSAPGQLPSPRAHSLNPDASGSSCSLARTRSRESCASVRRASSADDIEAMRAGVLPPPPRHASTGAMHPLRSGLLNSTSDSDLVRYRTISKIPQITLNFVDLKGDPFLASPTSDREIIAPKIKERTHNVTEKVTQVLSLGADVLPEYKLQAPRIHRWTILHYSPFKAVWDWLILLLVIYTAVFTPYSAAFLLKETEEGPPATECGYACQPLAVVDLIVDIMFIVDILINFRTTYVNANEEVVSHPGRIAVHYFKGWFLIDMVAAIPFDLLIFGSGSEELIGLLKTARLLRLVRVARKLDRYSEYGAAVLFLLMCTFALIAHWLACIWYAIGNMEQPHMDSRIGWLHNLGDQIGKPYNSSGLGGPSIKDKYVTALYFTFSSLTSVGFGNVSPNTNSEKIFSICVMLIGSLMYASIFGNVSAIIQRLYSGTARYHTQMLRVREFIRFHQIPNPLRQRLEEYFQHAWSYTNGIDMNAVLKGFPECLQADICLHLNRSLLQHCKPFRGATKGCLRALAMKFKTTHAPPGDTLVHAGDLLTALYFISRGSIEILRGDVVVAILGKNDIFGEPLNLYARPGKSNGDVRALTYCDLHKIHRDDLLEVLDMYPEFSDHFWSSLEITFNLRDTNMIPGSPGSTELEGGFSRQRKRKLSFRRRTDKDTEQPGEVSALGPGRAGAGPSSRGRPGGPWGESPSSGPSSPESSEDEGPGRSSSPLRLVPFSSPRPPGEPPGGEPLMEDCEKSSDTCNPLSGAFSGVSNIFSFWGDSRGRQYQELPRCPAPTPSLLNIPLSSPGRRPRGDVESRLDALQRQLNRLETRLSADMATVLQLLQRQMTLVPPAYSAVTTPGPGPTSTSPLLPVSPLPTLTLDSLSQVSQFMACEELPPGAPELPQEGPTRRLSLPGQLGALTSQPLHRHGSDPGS

| Compound | current change vs dofetilide control, less the hit threshold |
| --- | --- |
| COc1ccc(C(=O)Nc2ccccc2C(=O)O)cc1Cl | -54.3% (inactive) |
| Cc1ccc(C)c2sc(NC(=O)c3nc4ccccc4s3)nc12 | -46.9% (inactive) |
| CCc1ccc(C(C)NC(=O)C2CCCC2)cc1 (centres undefined) | -41.5% (inactive) |
| CC(=O)c1c(C)c2c(n1CCN(C)C)CCCC2 | -56.2% (inactive) |
| CCOC(=O)N1CCN(C(=O)c2ccc(CN(c3ccc(C)c(C)c3)S(C)(=O)=O)cc2)CC1 | -30.1% (inactive) |
| O=C(O)c1ccc(Cl)cc1Nc1nc2cc(Cl)ccc2o1 | -48.7% (inactive) |
| Cc1ccc(C(=O)Nc2nc3ccccc3c(=O)s2)cc1 | -52.6% (inactive) |
| COC(=O)c1ccc(CSc2ncnc3sc(C)c(C)c23)o1 | -48.9% (inactive) |
| CC1CN(S(=O)(=O)c2ccc(-c3nc4ccccc4s3)cc2)CC(C)O1 (centres undefined) | -45% (inactive) |
| Cc1nc2ccccc2n1-c1ccccc1 | -51.1% (inactive) |
| CN(Cc1ccccc1)C(=O)CCc1ccccc1 | -53.5% (inactive) |
| CCc1ccc2nc(NC(=O)c3cc(C)on3)sc2c1 | -43.6% (inactive) |
| CN(C(=O)c1ccc(Cl)c(S(=O)(=O)N2CCOCC2)c1)c1ccccc1C(=O)O | -64.9% (inactive) |
| Clc1cccc(OCCCN2CCCC2)c1Cl | -77.4% (inactive) |
| Cc1ccc(Cn2nnc3c(=O)n(CC(=O)N4CCCc5ccccc54)cnc32)cc1 | -41.2% (inactive) |
| O=C1C2CC=CCC2C(=O)N1c1ccc(Cc2ccncc2)cc1 (centres undefined) | -31.9% (inactive) |
| NC(=O)C1CCN(C(=O)c2cc3c(s2)CCCC3)CC1 | -52.8% (inactive) |
| CCOC(=O)c1c(C)[nH]c(C)c1S(=O)(=O)N1CCCCC1 | -31.9% (inactive) |
| CCCN(C(=O)c1ccco1)c1nnc(-c2ccncc2)s1 | -29.1% (inactive) |
| Cc1nonc1CN(C)C(=O)c1ccc(OC2CCN(Cc3ccccn3)CC2)cc1 | -69.9% (inactive) |
| Cc1ccc(C(C#N)c2ccc3c(C(F)(F)F)cc(C(F)(F)F)nc3n2)cc1 (centres undefined) | -59.8% (inactive) |
| CCOC(=O)Cc1nc2ccccc2o1 | -49.3% (inactive) |
| N#Cc1c(NC(=O)c2cc(-n3cnnc3)ccc2Cl)sc2c1CCCC2 | -43.1% (inactive) |
| O=C(c1csc(Nc2ccccc2Cl)n1)N1CCCC1 | -45.9% (inactive) |
| CC(C)Oc1c(Cl)cc(CNC(C)(C)CO)cc1Cl | -52.1% (inactive) |
| Fc1ccc2nc(Nc3nc4c(F)cc(F)cc4s3)sc2c1 | -49% (inactive) |
| CCOC(=O)C1CCN(S(=O)(=O)c2cccc3nonc23)CC1 | -37.7% (inactive) |
| CCOC(=O)N1CCN(C(=O)c2ccc(Cl)c(S(=O)(=O)Nc3ccccc3)c2)CC1 | -58.5% (inactive) |
| COC(=O)c1c(NS(=O)(=O)c2ccc3ccccc3c2)sc2c1CCCC2 | -46.2% (inactive) |
